Measurements: patent publication US7883713B2, “Topical application of thiazolyl amides” (AiCuris GmbH & Co. KG, priority 2001, dated 2011)

What was measured:
HSV-2 [1] = test: Ocular herpes model, HSV-2 infection; type: in vivo, mice (BALB/cABom); conditions: for number of survivors of 10 infected animals: HSV-2, day 16 after infection; for number of survivors of 10 infected animals / Pathology index HSV-2 infection (cumulative): topical ophthalmic 2% by weight suspension 5x a day, day 0 to day 4; for Pathology index HSV-2 infection (cumulative): day 0 to day 16, 10 animals; for efficacy of topical treatment (eye drops), in words: ocular HSV infection, efficacy applies to HSV-2
Method: (§1) To form a 2% by weight suspension, the active ingredients are mixed with Liquifilm eyedrops (Allergan, Ettlingen, Germany) (1 ml containing polyvinyl alcohol 14 mg, and as excipient chlorobutanol ½ H2O 5.25 mg, sodium chloride) and sonified in a glass tube in an ultrasonic bath at 15° C. for 15 min.
(§2) 6-week old female mice, strain BALB/cABom (weight 19 g) are purchased from a commercial breeder (M&B A/S, Denmark) and infected with HSV one week later. The animals are anesthetized in a leakproof glass vessel with diethyl ether (Merck). For the ocular infection, the cornea of the right eye is lightly scratched three times horizontally and three times vertically with a sterile needle (0.4×20 mm). The cornea pretreated in this way is inoculated with 5 μl of virus suspension (5×10^7 pfu HSV-2G, 7.5×10^7 pfu HSV-lwalki). The infected animals are checked each day and examined for signs of an HSV infection (blepharitis, keratitis, encephalitis). The pathology index is set at 1 for affected animals, and the pathology index is set at 0 for symptom-free animals. The particular pathology index of the group on the particular day is calculated by summation for all the animals in the group. The cumulative pathology index is calculated by totalling the pathology indices on individual days. The infection leads to the death of 90-100% of untreated animals due to a generalized infection with prominent central nervous symptoms an average of between 5 and 8 days. Moribund animals are euthanized. The treatment takes place starting 3 h after the infection 5× a day for 5 days by instilling 5 μl of a 2% by weight active ingredient suspension in Liquifilm© eye drops (Allergan, Ettlingen, Germany) (1 ml containing polyvinyl alcohol 14 mg, and as excipient chlorobutanol ½ H2O 5.25 mg, sodium chloride) into the infected right eye of the animal.

HSV-1 = test: Ocular herpes model, HSV-1 infection; type: in vivo, mice (BALB/cABom); conditions: for number of survivors of 10 infected animals: HSV-1, day 16 after infection; for number of survivors of 10 infected animals / Pathology index HSV-1 infection (cumulative): topical ophthalmic 2% by weight suspension 5x a day, day 0 to day 4; for Pathology index HSV-1 infection (cumulative): day 0 to day 16, 10 animals; for efficacy of topical treatment (eye drops), in words: ocular HSV infection, efficacy applies to HSV-1
Method: as §1, §2

HSV-2 [2] = test: Zosteriform spread model, percutaneous HSV-2 infection; type: in vivo, hairless mice (C3H/TifBom-hr); conditions: for efficacy of topical treatment, in words: 2% by weight suspension in 30% isopropyl myristate, 70% ethanol; for Pathology index (cumulative): day 0 to day 21, 10 animals
Method: To form a 2% by weight suspension, the active ingredients are mixed with 30% by weight isopropyl myristate/70% by weight of ethanol and sonified in a glass tube in an ultrasonic bath at 15° C. for 15 min.
To produce the ointment preparation, wool alcohol ointment complying with DAB 9 is employed. The active ingredient is suspended in a molten mixture of 0.5 parts by weight of cetyl stearyl alcohol (quality complying with DAB 9), 6 parts by weight of wool wax alcohol (quality complying with DAB 9) and 93.5 parts by weight of white petrolatum (quality complying with DAB 9). The mixture is stirred while cooling to room temperature (about 21° C.).
To produce a so-called “PEG isogel” preparation, the active ingredient is suspended or dissolved in the melt a mixture of lower molecular weight polyethylene glycol (PEG) and higher molecular weight PEG.
A further gel preparation employed is a polyacrylate gel (so-called “carbogel”) which consists of 1 part by weight of Carbopol 974 P NF (manufacturer BF Goodrich, USA), […], 5 part by weight of 5% by weight (m/m) sodium hydroxide solution and 89 parts by weight of water. The preparation is produced by rubbing the Carbopol with the isopropanol, adding the active ingredient, and dispersing the mixture in water. The sodium hydroxide solution is added stepwise with stirring. A gel is formed.
6-week old female hairless mice (C3H/TifBom-hr) are purchased from a commercial breeder (M&B A/S, Denmark) and infected with HSV one week later. The animals are anesthetized with diethyl ether (Merck) in a leakproof glass vessel. For the dermal infection, the skin on the right flank or in the neck region of the animal is scratched 10× crosswise with a sterile needle (0.6×25 mm). The skin pretreated in this way is inoculated with 10 μl of virus suspension (1×10^6 pfu HSV-2G; 1.5×10^6 p fu HSV-lwalki). The animals are inspected each day, and the pathology index is determined by means of the following scale: 0: no visible signs of infection, 1: blistering, 2: slight spread in the dermatome (shingles), 3: large areas affected (shingles), 4: confluent shingles bands, 5: paralysis of the extremities, 6: death. The particular pathology index of the group on the particular day is calculated by forming the average for all the animals in the group. The cumulative pathology index is calculated by totalling the pathology indices for individual days. The infection leads to death of 90-100% of the untreated animals due to a generalized infection with prominent central nervous symptoms an average of between 5 and 8 days. Moribund animals are euthanized. […]

[3] = HSV-2, right flank, 2% by weight suspension in 30% isopropyl myristate/70% ethanol on skin 2x a day, day 0 to day 4

Row | SMILES | number of survivors of 10 infected animals (HSV-2 [1]) | Pathology index HSV-2 infection (cumulative) (HSV-2 [1]) | number of survivors of 10 infected animals (HSV-1) | Pathology index HSV-1 infection (cumulative) (HSV-1) | efficacy of topical treatment (eye drops), in words (HSV-2 [1]) | efficacy of topical treatment (eye drops), in words (HSV-1) | efficacy of topical treatment, in words (HSV-2 [2]; HSV-2, right flank) | Pathology index (cumulative) (HSV-2 [2]; [3]) | effect of short treatment on infection, in words (HSV-2 [2]; HSV-2G, neck region, 2% by weight PEG isogel 2x a day for 2 days (4 treatments)) | Pathology index (cumulative) (HSV-2 [2]; HSV-2G, neck region, 2% by weight PEG isogel on skin 2x a day, day 0 to day 1) | efficacy of topical treatment with various formulations, in words (HSV-2 [2]; HSV-2G, neck region, formulations with 3% by weight active ingredient)
1 | Nc1nc2c(ncn2COCCO)c(=O)[nH]1 [Aciclovir, reference compound] | 1 | 90 | 7 | 33 | – | – | – | – | – | – | –
2 | Cc1nc(N(C)C(=O)Cc2ccc(-c3cc(F)ccc3F)cc2)sc1S(N)(=O)=O [N-[5-(Aminosulfonyl)-4-methyl-1,3-thiazol-2-yl]-2-(2′,5′-difluoro-1,1′-biphenyl-4-yl)-N-methylacetamide] | 4 | 42 | 10 | 0 | extensive efficacy | extensive efficacy | – | – | – | – | –
3 | Cc1nc(N(C)C(=O)Cc2ccc(-c3ccccc3F)cc2)sc1S(N)(=O)=O [N-[5-(Aminosulfonyl)-4-methyl-1,3-thiazol-2-yl]-2-(2′-fluoro[1,1′-biphenyl]-4-yl)-N-methylacetamide] | – | – | – | – | – | – | extensive efficacy | 0.2 | – | – | –
4 | Cc1nc(N(C)C(=O)Cc2ccc(-c3ccccn3)cc2)sc1S(N)(=O)=O [N-[5-(Aminosulfonyl)-4-methyl-1,3-thiazol-2-yl]-N-methyl-2-[4-(2-pyridyl)phenyl]acetamide] | 9 | 7 | 10 | 0 | extensive efficacy | extensive efficacy | extensive efficacy | 0.3 | completely suppressed | 0.3 | extensive efficacy
5 | Cc1nc(N(C)C(=O)Cc2ccc(-c3cccc(F)c3)cc2)sc1S(N)(=O)=O [N-[5-(aminosulfonyl)-4-methyl-1,3-thiazol-2-yl]-2-(3′-fluoro-1,1′-biphenyl-4-yl)-N-methylacetamide] | – | – | – | – | – | – | extensive efficacy | 0.3 | – | – | –
6 | Cc1nc(N(C)C(=O)Cc2ccc(-c3ccccc3)cc2)sc1S(N)(=O)=O [N-[5-Aminosulfonyl)-4-methyl-1,3-thiazol-2-yl]-2-[1,1′-biphenyl]-4-yl-N-methylacetamide] | – | – | – | – | – | – | extensive efficacy | 7.9 | – | – | –
